{"source": "patent US20040266849A1", "about": "“Therapeutic compounds for treating dyslipidemic conditions” (priority 2004, published 2004)", "tested_on": "ABCA1 mRNA", "assay": "Induction of ABCA1 mRNA levels in human primary macrophages", "assay_type": "cell-based", "conditions": "Primary macrophage, 18 h + 6 h, vs DMSO control, read-out: Fold Induction of ABCA1 mRNA (Mean ± SEM)", "method": "Induction of ABCA1 mRNA levels\nHuman Primary Macrophages were used to test the ability of LXR ligands to induce the expression of ABCA1 mRNA. The collection and purification of monocytes and their subsequent differentiation into macrophages by culturing in Teflon jars for 7-9 days was performed according to Wright and Silverstein J. Exp. Med. V156, October 1982 pp. 1149-1164. Cells were harvested from the Teflon jars and seeded into appropriate vessels in RPMI1640 plus 12% human serum and antibiotics. Cells were allowed to recover overnight before treatment. Treatment was for 18 hours with the described compounds, followed by a re-application of fresh compounds for an additional 6 hours in DMEM minus Phenol Red with 10% charcoal stripped FCS. The cells were harvested and total RNA prepared using the phenol/guanidine isothiocyanate method as supplied and described by Molecular Research Center, Inc. (TRI REAGENT® Cat. No. TR 118). ABCA1 mRNA levels in the total RNA were measured using the TaqMan® mRNA quantitation system, following protocols published by the manufacturer (Perkin-Elmer). The oligonucleotide PCR primers used to detect ABCA1 were: […]\nThe oligonucleotide probe used was:\nABCA1 mRNA levels in each sample were normalized to the mRNA levels for the 23 kDa highly basic protein. The oligonucleotide PCR primers used to detect the 23 kDa highly basic protein were: […]"}
{"smiles": "CC(C)CC[C@@H](O)[C@@H](C)[C@H]1CC[C@H]2[C@@H]3CC=C4C[C@@H](O)CC[C@]4(C)[C@H]3CC[C@]12C", "note": "[22-(R)-hydroxycholesterol, reference compound]", "values": [{"measurement": "fold induction at 10 µM", "value": "8 ± 1.37"}]}
{"smiles": "CCCc1c(OCCCN(C)C(=O)CC(C)(C)CC(=O)O)ccc2c(C(F)(F)F)noc12", "note": "[Compound (3d)]", "values": [{"measurement": "fold induction at 0.1 µM", "setting": "0.1 μM", "value": "0.9 ± 0.2"}, {"measurement": "fold induction at 1 µM", "setting": "1.0 μM", "value": "3.3 ± 0.3"}, {"measurement": "fold induction at 10 µM", "value": "13.6 ± 1.1"}]}
